According to PMC10718076, “1,2-Disubstituted bicyclo[2.1.1]hexanes as saturated bioisosteres of ortho-substituted benzene” (Chemical Science, 2023):
Values after ≈ are worked out from the molar mass of the structure shown.

System: Aspergillus niger (strain VURV-F 822)
Experiment: Antifungal disk diffusion method
Format: cell-based
Conditions: for zone of inhibition at 4 µg/mL: Concentration 0.004 mg/mL, Boscalid, Bixafen marked st; for zone of inhibition at 4 µg/mL / zone of inhibition at 8 µg/mL / zone of inhibition at 16 µg/mL / zone of inhibition at 30 µg/mL / zone of inhibition at 60 µg/mL: 0 = absence of antifungal activity; for zone of inhibition at 4 µg/mL / zone of inhibition at 60 µg/mL: Fluxapyroxad; for zone of inhibition at 4 µg/mL / zone of inhibition at 8 µg/mL / zone of inhibition at 16 µg/mL / zone of inhibition at 30 µg/mL / zone of inhibition at 60 µg/mL / zone of inhibition at 120 µg/mL / zone of inhibition at 250 µg/mL / zone of inhibition at 500 µg/mL / zone of inhibition at 1000 µg/mL / zone of inhibition at 2000 µg/mL: read-out: Diameter of inhibition zone; for zone of inhibition at 8 µg/mL: Concentration 0.008 mg/mL; for zone of inhibition at 16 µg/mL: Concentration 0.016 mg/mL; for zone of inhibition at 30 µg/mL: Concentration 0.03 mg/mL; for zone of inhibition at 30 µg/mL / zone of inhibition at 60 µg/mL: (±)-29 marked st; for zone of inhibition at 60 µg/mL: Concentration 0.06 mg/mL, Bixafen; for zone of inhibition at 120 µg/mL: Concentration 0.12 mg/mL, (±)-28 marked st (static growth); for zone of inhibition at 250 µg/mL: Concentration 0.25 mg/mL, (±)-28 marked st (static growth, secondary growth of mycelium); for zone of inhibition at 500 µg/mL: Concentration 0.5 mg/mL; for zone of inhibition at 500 µg/mL / zone of inhibition at 1000 µg/mL / zone of inhibition at 2000 µg/mL: 10 μl per disk; for zone of inhibition at 1000 µg/mL: Concentration 1 mg/mL; for zone of inhibition at 2000 µg/mL: Concentration 2 mg/mL
Experimental: Antifungal activity of the synthetic compounds using disk diffusion methods The compounds were tested for plant pathogens Aspergillus niger (strain VURV-F 822), which was received from Culture collection of microorganisms of Crop Research Institute (Prague, Czech […]
The synthetic compounds' antifungal activity was evaluated using a disk diffusion assay for testing filamentous fungi (CLSI M51-A) and broth microdilution antifungal susceptibility testing (EUCAST E.DEF 7.3.1; CLSI M38-A2)
[CLSI M51-A. Method for Antifungal Disk Diffusion Susceptibility Testing of Nondermatophyte Filamentous Fungi; Approved Guideline.CLSI document M51-A. Wayne, PA:
Clinical and Laboratory Standards Institute; 2010. This method is standardized for Altenaria, Aspergillus, Bipolaris, Fusarium, order Mucorales, etc.]
[CLSI M38-A2. 2008. Reference method for broth dilution antifungal susceptibility testing of filamentous fungi, 2nd ed Approved standard M38 -A2 Clinical and Laboratory Standards Institute, […]
Antifungal disk diffusion method
The solutions of fungicides and their analogues were diluted in dimethyl sulfoxide (DMSO) to […]
mg/mL for each test component. Sterile paper disks (ASPECT, Ukraine) were soaked with 10 μl of a solution of the appropriate fungicide from the highest concentration to the lowest.
The fungal strains were cultured on Petri dishes with Saburo dextrose agar (Condalab, Spain) and incubated at 25 °C for 5 days. Sterile Dulbecco's phosphate -buffered saline (DPBS) with 0,1 % Tween 20 was used to cover colonies of fungus for obtained conidia l suspension. Suspension of conidia was adjusted to inoculums 2×10^5 conidia/mL by sterile DPBS.
For antifungal disk diffusion test we used square Petri dishes (FALCON A Corning Brand, USA). The conidial suspension (0.5 mL) was added to Petri dishes with Saburo dextrose agar. The suspension was evenly distributed over the surface of the nutrient medium with a glass spatula.
After the surface of the inoculated medium was dry, the disks with different concentrations of testing compounds were added to the Petri dishes. Each compound was tested in triplicate at different concentrations. Growth control was a disk with 10 μl of DMSO, which was used for test […]
Petri dishes incubated at 25 °C for 72 h. The test compounds at known concentrati on into contact with an inoculated medium then exert a growth-inhibiting effect then a clear zone (the zone of […]
inhibition) appears around the test product. The diameter of a clear zone around the well is […]
If the fungal strain is susceptible to the antifungal agent, then a zone of inhibition appears on the agar plate. If it is resistant to the test compound, then no zone is evident. The size of the zone of inhibition is usually related to the level of antifungal activity present in the compound – a larger […]
The growth rate of all strains for each concentration of test compounds was determined visually and compared with the growth of control.
Broth microdilution antifungal susceptibility testing
A 96-well CELLSTAR plate (sterile, flat-bottomed, polystyrene, transparent) was used to determine MIC by broth microdilution method. Also, dabble straight RPMI-1640 medium with 2% glucose (2x RPMI 2%G) was used for this method. Spore suspension for plate inoculation was prepared according to the method described above for the disc diffusion method.
The each well in the plate contained 49 μl of medium (2x RPMI 2%G), 50 μl of inoculum (prepared in DPBS) and 1 μl of the stock solution of the test substance. Positive control wells contained 50 μl medium and 50 μl inoculum, and sterile control wells contained 50 μl medium and […]
To determine the MIC by the microdilution method, a series of stock solutions of fungicides and their analogues in DMSO with the following concentrations were prepared: 3.2 mg/mL, 1.6 mg/mL, […]
1 μl of the stock solutions of the test substances were added to each well to obtain the following […]
Immediately after adding all the components to the plates, the optical density was measured at […]

Compound: Cn1cc(C(=O)Nc2ccc(F)cc2-c2ccc(Cl)c(Cl)c2)c(C(F)F)n1 [Bixafen, bixafen]
- zone of inhibition at 4 µg/mL: 9 ± 2 mm
- zone of inhibition at 8 µg/mL: 15.8 ± 1.25 mm
- zone of inhibition at 16 µg/mL: 14.5 ± 1 mm
- zone of inhibition at 30 µg/mL: 20.2 ± 2.25 mm
- zone of inhibition at 60 µg/mL: 20.5 ± 1.75 mm
- zone of inhibition at 120 µg/mL: 27 ± 1 mm
- zone of inhibition at 250 µg/mL: 32 ± 2.5 mm
- zone of inhibition at 500 µg/mL: 32.8 ± 1.75 mm
- zone of inhibition at 1000 µg/mL: 35.2 ± 1.4 mm
- zone of inhibition at 2000 µg/mL: 38 ± 1 mm
- MIC (disk diffusion, small zones of inhibition with secondary mycelial growth, read-out: minimum inhibitory concentration): 4 µg/mL (≈ 9.66 µM)

Compound: O=C(NC1CC2CC1(c1ccc(Cl)cc1)C2)c1cccnc1Cl (centres unmarked) [Compound 28]
- zone of inhibition at 4 µg/mL: 0 mm
- zone of inhibition at 8 µg/mL: 0 mm
- zone of inhibition at 16 µg/mL: 0 mm
- zone of inhibition at 30 µg/mL: 0 mm
- zone of inhibition at 60 µg/mL: 0 mm
- zone of inhibition at 120 µg/mL: 9 ± 0.5 mm
- zone of inhibition at 250 µg/mL: 7.5 ± 0.5 mm
- zone of inhibition at 500 µg/mL: 10.5 ± 1.5 mm
- zone of inhibition at 1000 µg/mL: 13.8 ± 0.88 mm
- zone of inhibition at 2000 µg/mL: 15.5 ± 0.5 mm

Compound: Cn1cc(C(=O)NC2CC3CC2(c2ccc(Cl)c(Cl)c2)C3)c(C(F)F)n1 (centres unmarked) [Compound 29]
- zone of inhibition at 4 µg/mL: 0 mm
- zone of inhibition at 8 µg/mL: 0 mm
- zone of inhibition at 16 µg/mL: 0 mm
- zone of inhibition at 30 µg/mL: 3.5 ± 0.5 mm
- zone of inhibition at 60 µg/mL: 6.5 ± 1 mm
- zone of inhibition at 120 µg/mL: 8.75 ± 1.25 mm
- zone of inhibition at 250 µg/mL: 12 ± 0.5 mm
- zone of inhibition at 500 µg/mL: 12.5 ± 1.5 mm
- zone of inhibition at 1000 µg/mL: 16.2 ± 1.25 mm
- zone of inhibition at 2000 µg/mL: 23.5 ± 2 mm

Compound: Cn1cc(C(=O)NC2CC3CC2(c2cc(F)c(F)c(F)c2)C3)c(C(F)F)n1 (centres unmarked) [Compound 30]
- zone of inhibition at 4 µg/mL: 0 mm
- zone of inhibition at 8 µg/mL: 0 mm
- zone of inhibition at 16 µg/mL: 0 mm
- zone of inhibition at 30 µg/mL: 0 mm
- zone of inhibition at 60 µg/mL: 0 mm
- zone of inhibition at 120 µg/mL: 10 ± 0.5 mm
- zone of inhibition at 250 µg/mL: 8.5 ± 1 mm
- zone of inhibition at 500 µg/mL: 13.8 ± 0.75 mm
- zone of inhibition at 1000 µg/mL: 20.5 ± 1 mm
- zone of inhibition at 2000 µg/mL: 24.2 ± 0.75 mm
